The text below walks through data of ChEMBL document CHEMBL1126392, “Semisynthesis and biological activity of taxol analogues: baccatin III 13-(N-benzoyl-(2R,3S)-3-(p-tolyl)isoserinate), baccatin III 13-(N-(p-toluoyl)-2R,3S)-3-phenylisoserinate), baccatin III 13-(N-benzoyl-(2R,3S)-3-(p-trifluoromethylphenyl)isoserinate), and baccatin III …” (1992).

Active and inactive are the calls of the source. The calls are words filed in the database; no cut-off is given here.

Experiment [1] concerns B16. The experiment can be described thus: Compound was evaluated for the cytotoxicity against B16 melanoma cells after 40h incubation expressed as ratio relative to that of taxol; NA - No cytotoxicity. It counts as functional, cell-based. Conditions: Mus musculus.
For experiment [2], the target named is Tubulin alpha chain (Sus scrofa) (UniProt P02550). The experiment can be described thus: (§1) Concentration which causes polymerization of 50 % of the tubulin present, in 15 min at 37 C, as a ratio in comparison wth taxol (taxol ED50 = 0.7 to 0.8 uM). In kind it is functional.
Tubulin alpha chain (Sus scrofa), sequence (P02550 whole entry, looked up): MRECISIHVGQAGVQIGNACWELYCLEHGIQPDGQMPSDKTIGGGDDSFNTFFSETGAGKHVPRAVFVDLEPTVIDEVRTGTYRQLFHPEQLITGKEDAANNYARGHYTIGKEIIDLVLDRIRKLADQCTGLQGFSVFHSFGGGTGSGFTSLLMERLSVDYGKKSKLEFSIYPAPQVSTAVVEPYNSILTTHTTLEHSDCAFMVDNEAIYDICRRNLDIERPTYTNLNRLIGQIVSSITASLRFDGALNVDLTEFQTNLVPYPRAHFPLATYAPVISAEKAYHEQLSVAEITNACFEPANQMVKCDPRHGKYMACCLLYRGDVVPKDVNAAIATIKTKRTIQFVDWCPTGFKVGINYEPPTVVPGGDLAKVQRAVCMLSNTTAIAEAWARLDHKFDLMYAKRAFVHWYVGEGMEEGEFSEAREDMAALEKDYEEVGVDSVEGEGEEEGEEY
In experiment [3] the test system is B16. The experiment can be described thus: Compound was evaluated for the cytotoxicity against B16 melanoma cells after 40h incubation expressed as ratio relative to that of taxol. In kind it is functional, Mus musculus.
Experiment [4] is described as follows: as §1. It counts as functional.

`CC(=O)O[C@H]1C(=O)[C@@]2(C)[C@H]([C@H](OC(=O)c3ccccc3)[C@]3(O)C[C@H](OC(=O)[C@H](O)[C@@H](NC(=O)c4ccccc4)c4ccc(C(F)(F)F)cc4)C(C)=C1C3(C)C)[C@]1(OC(C)=O)CO[C@@H]1C[C@@H]2O`: in the experiment on B16 [1], the “ED50 / ED50 (taxol)” value is “inactive”. Also, the Ratio entry in experiment [2] was “inactive”. As for `CC(=O)O[C@H]1C(=O)[C@@]2(C)[C@H]([C@H](OC(=O)c3ccccc3)[C@]3(O)C[C@H](OC(=O)[C@H](O)[C@@H](NC(=O)c4ccccc4)c4ccc(C)cc4)C(C)=C1C3(C)C)[C@]1(OC(C)=O)CO[C@@H]1C[C@@H]2O`, in the experiment on B16 [3], the “ED50 / ED50 (taxol)” value came to 3. Also, the Ratio in experiment [2] is 2.4. With `CC(=O)O[C@H]1C(=O)[C@@]2(C)[C@H]([C@H](OC(=O)c3ccccc3)[C@]3(O)C[C@H](OC(=O)[C@H](O)[C@@H](NC(=O)c4ccc(C(F)(F)F)cc4)c4ccccc4)C(C)=C1C3(C)C)[C@]1(OC(C)=O)CO[C@@H]1C[C@@H]2O`, the “ED50 / ED50 (taxol)” value in the experiment on B16 [3] is listed as 17.7. In experiment [2], the Ratio stood at 6.

With `CC(=O)O[C@H]1C(=O)[C@@]2(C)[C@H]([C@H](OC(=O)c3ccccc3)[C@]3(O)C[C@H](OC(=O)[C@H](O)[C@@H](NC(=O)c4ccccc4)c4ccccc4)C(C)=C1C3(C)C)[C@]1(OC(C)=O)CO[C@@H]1C[C@@H]2O`, the Ratio in experiment [4] is 0.7. For `CC(=O)O[C@H]1C(=O)[C@@]2(C)[C@H]([C@H](OC(=O)c3ccccc3)[C@]3(O)C[C@H](OC(=O)[C@H](O)[C@@H](NC(=O)c4ccc(C)cc4)c4ccccc4)C(C)=C1C3(C)C)[C@]1(OC(C)=O)CO[C@@H]1C[C@@H]2O`, in the experiment on B16 [3], the “ED50 / ED50 (taxol)” value turned out to be 1.4. Further, in experiment [2], the Ratio was 1.6.
